Assay results taken from patent US8178658B2 (Dow AgroSciences, LLC, priority 2008, dated 2012).

Experiments:
[1] = system: beet armyworm (BAW; Spodoptera exigua: Lepidoptera); assay: 128-well diet tray assay on beet armyworm (BAW 50); assay type: in vivo; settings: for BAW 50 ug/cm2: 128-well diet tray assay, 50 μg/cm^2 of test compound on diet, second instar BAW larvae, mortality class; for pest or weed control at 50 µg/cm2, 50 µg/cm2: Spodoptera exigua, 144 h, read-out: BAW 50 ug/cm2
How it was run: (§1)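 Compound was layered onto artificial diet and dried, then infested: eggs for the 96-well test (12 μg per well, 29° C, dark) and 3–5 second instars for the 128-well tray (50 μg/cm^2, 25° C, 14:10 light-dark). Both ran six days before percent mortality was recorded and averaged across replicates or wells.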

[2] = system: beet armyworm (BAW; Spodoptera exigua: Lepidoptera); assay: 96-well microtiter plate-based high throughput (HTS) diet bioassay on beet armyworm (BAW HTS); assay type: in vivo; settings: for BAW HTS: 12 μg test compound per well, BAW eggs, mortality at 6 d post-treatment, mortality class; for pest or weed control at 12 µg/well, 12 µg/well: Spodoptera exigua, 144 h, read-out: BAW HTS
How it was run: as §1

[3] = 96-well microtiter plate HTS diet assay

SMILES	BAW 50 ug/cm2 [1]	pest or weed control at 50 µg/cm2, 50 µg/cm2 [1]	BAW HTS [2, 3]	pest or weed control at 12 µg/well, 12 µg/well [2]	BAW HTS ([2]; 96-well HTS diet assay)
CO[C@@H]1[C@@H](OC)[C@H](C)O[C@@H](OC(=O)Nc2ccc(-c3ncn(-c4ccc(OC(F)(F)F)cc4)n3)cc2)[C@@H]1OC [Compound 191, {4-[1-(4-trifluoromethoxyphenyl)-1H-[1,2,4]triazol-3-yl]-phenyl}-carbamic acid (2S,3R,4R,5S,6S)-3,4,5-trimethoxy-6-methyl-tetrahydropyran-2-yl ester]	A (the compound was tested and at least 50 percent mortality was observed)	> 50%	A (the compound was tested and at least 50 percent mortality was observed)	> 50%	–
CCO[C@@H]1[C@@H](OC)[C@H](C)O[C@@H](OC(=O)Nc2ccc(-c3ncn(-c4ccc(C(F)(F)F)cc4)n3)cc2)[C@@H]1OC [Compound 192]	A (the compound was tested and at least 50 percent mortality was observed)	–	A (the compound was tested and at least 50 percent mortality was observed)	–	A (the compound was tested and at least 50 percent mortality was observed)
CCO[C@@H]1[C@@H](OC)[C@H](C)O[C@@H](OC(=O)Nc2ccc(-c3ncn(-c4ccc(OC(F)(F)F)cc4)n3)cc2)[C@@H]1OC [Compound 193]	A (the compound was tested and at least 50 percent mortality was observed)	–	B (either (1) the compound was tested and less than 50 percent mortality was observed or (2) the compound was not tested)	–	B (either (1) the compound was tested and less than 50 percent mortality was observed or (2) the compound was not tested)
CO[C@@H]1[C@@H](OC)[C@H](C)O[C@@H](OC(=O)Nc2ccc(-c3nc(C)n(-c4ccc(OC(F)(F)F)cc4)n3)cc2)[C@@H]1OC [Compound 194]	A (the compound was tested and at least 50 percent mortality was observed)	–	A (the compound was tested and at least 50 percent mortality was observed)	–	A (the compound was tested and at least 50 percent mortality was observed)
CO[C@@H]1[C@@H](OC)[C@H](C)O[C@H](OC(=O)Nc2ccc(-c3nc(C)n(-c4ccc(OC(F)(F)F)cc4)n3)cc2)[C@@H]1OC [Compound 195]	A (the compound was tested and at least 50 percent mortality was observed)	–	B (either (1) the compound was tested and less than 50 percent mortality was observed or (2) the compound was not tested)	–	B (either (1) the compound was tested and less than 50 percent mortality was observed or (2) the compound was not tested)
CO[C@@H]1[C@@H](OC)[C@H](C)O[C@@H](OC(=O)Nc2ccc(-c3ncn(-c4ccc(Oc5ccc(Cl)cc5)cc4)n3)cc2)[C@@H]1OC [Compound 196]	A (the compound was tested and at least 50 percent mortality was observed)	–	A (the compound was tested and at least 50 percent mortality was observed)	–	A (the compound was tested and at least 50 percent mortality was observed)
CCCCO[C@@H]1[C@@H](OC)[C@H](C)O[C@@H](OC(=O)Nc2ccc(-n3cnc(-c4ccc(C)cc4)n3)cc2)[C@@H]1OC [Compound 197]	A (the compound was tested and at least 50 percent mortality was observed)	–	A (the compound was tested and at least 50 percent mortality was observed)	–	A (the compound was tested and at least 50 percent mortality was observed)
CCCCO[C@@H]1[C@@H](OC)[C@H](C)O[C@@H](OC(=O)Nc2ccc(-n3cnc(-c4ccc(C(F)(F)F)cc4)n3)cc2)[C@@H]1OC [Compound 198]	A (the compound was tested and at least 50 percent mortality was observed)	–	A (the compound was tested and at least 50 percent mortality was observed)	–	A (the compound was tested and at least 50 percent mortality was observed)
CCCCO[C@@H]1[C@@H](OC)[C@H](C)O[C@H](OC(=O)Nc2ccc(-n3cnc(-c4ccc(C(F)(F)F)cc4)n3)cc2)[C@@H]1OC [Compound 199]	A (the compound was tested and at least 50 percent mortality was observed)	–	A (the compound was tested and at least 50 percent mortality was observed)	–	A (the compound was tested and at least 50 percent mortality was observed)
CO[C@@H]1[C@@H](OC)[C@H](C)O[C@@H](OC(=O)Nc2ccc(-c3ncn(-c4ccc(OC(F)(F)C(F)(F)F)cc4)n3)cc2)[C@@H]1OC [Compound 200]	A (the compound was tested and at least 50 percent mortality was observed)	–	A (the compound was tested and at least 50 percent mortality was observed)	–	A (the compound was tested and at least 50 percent mortality was observed)
CCO[C@@H]1[C@@H](OC)[C@H](C)O[C@@H](OC(=O)Nc2ccc(-c3ncn(-c4ccc(OC(F)(F)C(F)(F)F)cc4)n3)cc2)[C@@H]1OC [Compound 201, {4-[1-(4-pentafluoroethyloxyphenyl)-1H-[1,2,4]triazol-3-yl]-phenyl}-carbamic acid (2S,3R,4R,5S,6S)-4-ethoxy-3,5-dimethoxy-6-methyl-tetrahydropyran-2-yl ester]	A (the compound was tested and at least 50 percent mortality was observed)	> 50%	A (the compound was tested and at least 50 percent mortality was observed)	> 50%	–
CCO[C@@H]1[C@@H](OC)[C@H](C)O[C@H](OC(=O)Nc2ccc(-c3ncn(-c4ccc(OC(F)(F)C(F)(F)F)cc4)n3)cc2)[C@@H]1OC [Compound 202, {4-[1-(4-pentafluoroethyloxyphenyl)-1H-[1,2,4]triazol-3-yl]-phenyl}-carbamic acid (2R,3R,4R,5S,6S)-4-ethoxy-3,5-dimethoxy-6-methyl-tetrahydropyran-2-yl ester]	A (the compound was tested and at least 50 percent mortality was observed)	> 50%	A (the compound was tested and at least 50 percent mortality was observed)	> 50%	–
CCO[C@@H]1[C@@H](OC)[C@H](C)O[C@@H](OC(=S)Nc2ccc(-c3ncn(-c4ccc(OC(F)(F)C(F)(F)F)cc4)n3)cc2)[C@@H]1OC [Compound 203, {4-[1-(4-pentafluoroethyloxy-phenyl)-1H-[1,2,4]triazol-3-yl]-phenyl}-thiocarbamic acid (2S,3R,4R,5S,6S)-4-ethoxy-3,5-dimethoxy-6-methyl-tetrahydropyran-2-yl ester]	A (the compound was tested and at least 50 percent mortality was observed)	> 50%	A (the compound was tested and at least 50 percent mortality was observed)	> 50%	–
